Starred links: 1 amine or outer side, 2 acyl side, 3 side chain; linkers in the order of their positions; H or OH if unused. Positions of bridges follow the written chain, without caps; N, C: chain ends. Non-standard residues stand in square brackets, D forms with d. Residues, ends and D or L forms follow the SMILES beside them. *: point of attachment. hPhe(3-Cl-4-CF3) = N[C@@H](CCc1ccc(C(F)(F)F)c(Cl)c1)C(=O)O; hPhe(3-F,4-CF3) = N[C@@H](CCc1ccc(C(F)(F)F)c(F)c1)C(=O)O; hPhe(4-CF3) = N[C@@H](CCc1ccc(C(F)(F)F)cc1)C(=O)O; NEtPhe(4-Cl) = CCN[C@@H](Cc1ccc(Cl)cc1)C(=O)O; NMePhe(4-Cl) = CN[C@@H](Cc1ccc(Cl)cc1)C(=O)O; NMePhe(4-Me) = CN[C@@H](Cc1ccc(C)cc1)C(=O)O; NMePhe(2-Cl) = CN[C@@H](Cc1ccccc1Cl)C(=O)O; NMedβ3hAla = C[C@H](CC(=O)[*:2])N(C)[*:1]; Oic = O=C(O)[C@@H]1C[C@@H]2CCCC[C@@H]2N1; NMeGly(cPent) = CN[C@H](C(=O)O)C1CCCC1; Pro(4,4-F2) = O=C(O)[C@@H]1CC(F)(F)CN1; NMe3Pal = CN[C@@H](Cc1cccnc1)C(=O)O; NMeCha = CN[C@@H](CC1CCCCC1)C(=O)O; NMeChg = CN[C@H](C(=O)O)C1CCCCC1; NMeF = CN[C@@H](Cc1ccccc1)C(=O)O; NMeI = CC[C@H](C)[C@H](NC)C(=O)O; NMeD = CN[C@@H](CC(=O)O)C(=O)O; CH2CONHtBu = CC(C)(C)NC(=O)C*; NMeL = CN[C@@H](CC(C)C)C(=O)O; NMeV = CN[C@H](C(=O)O)C(C)C; Trifluoroethyl = FC(F)(F)C*; d(β3hA) = C[C@@H](N)CC(=O)O; NMeS = CN[C@@H](CO)C(=O)O; NMeA = CN[C@@H](C)C(=O)O; NMeAib = CNC(C)(C)C(=O)O; Nle = CCCC[C@H](N)C(=O)O; Piperidide = C1CCN(*)CC1; Pyrrolidide = C1CCN(*)C1; dNMeA = CN[C@H](C)C(=O)O; Ac5c = NC1(C(=O)O)CCCC1; Aze = O=C(O)[C@@H]1CCN1; Ac4c = NC1(C(=O)O)CCC1; Aib = CC(C)(N)C(=O)O; Sar = CNCC(=O)O
Biological target: T1, Kras and SOS1 (biotin-tagged human Kras loaded with GDP, His-tagged human SOS1) (Homo sapiens, UniProt P01116, G12D)
T1 construct: made in house; host or cells: E. coli (stated for Kras only)
Experiment: Protein-protein interaction inhibition between Kras and SOS1 (KrasGl2D-SOS PPI) using AlphaScreen
Assay type: binding
Settings: AlphaScreen; biotin-tagged human Kras loaded with GDP, His-tagged human SOS1; read-out: KRAS G12D-SOS PPI IC50
Procedure, shortened: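 Binding between SOS1 and Kras is detected as bead-proximity luminescence: illuminate Ni-conjugated donors (680 nm), collect 520-620 nm emission from streptavidin-conjugated acceptors; Kras carries biotin and GDP loaded after purification, SOS1 carries a His tag.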

T1 sequence (P01116 1-188 isoform P01116-2 G12D): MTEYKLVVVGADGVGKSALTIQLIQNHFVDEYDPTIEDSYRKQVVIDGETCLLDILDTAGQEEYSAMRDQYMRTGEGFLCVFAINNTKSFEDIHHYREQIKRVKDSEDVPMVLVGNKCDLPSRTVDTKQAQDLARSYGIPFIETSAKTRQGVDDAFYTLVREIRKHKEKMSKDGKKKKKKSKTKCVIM

| SMILES | IC50 |
| --- | --- |
| CC[C@H](C)[C@@H]1NC(=O)[C@H](CC(C)C)N(C)C(=O)C[C@@H](C)N(C)C(=O)[C@H](CC(C)C)NC(=O)C(C)(C)N(C)C(=O)[C@H](CC(C)C)NC(=O)[C@H](CCc2ccc(C(F)(F)F)c(Cl)c2)NC(=O)CN(C)C(=O)[C@H](CC2CCCCC2)N(C)C(=O)[C@@H]2CCN2C(=O)[C@H](C)N(C)C1=O [Compound 886] (cyclo([Aze][NMeCha][Sar][hPhe(3-Cl-4-CF3)]L[NMeAib]L[NMedβ3hAla][NMeL]I[NMeA])) | 100 nM |
| CC[C@H](C)[C@@H]1NC(=O)[C@H](C)N(C)C(=O)C[C@@H](C(=O)N2CCCC2)NC(=O)[C@H](CC(C)C)N(C)C(=O)[C@H](COCC(=O)NC(C)(C)C)N(C)C(=O)[C@H](CC(C)C)NC(=O)[C@H](CCc2ccc(C(F)(F)F)cc2)NC(=O)CN(C)C(=O)[C@H](Cc2ccc(Cl)cc2)N(C)C(=O)CN(C)C(=O)CN(C)C1=O [Compound 889] ([NMeA]I[Sar][Sar][NMePhe(4-Cl)][Sar][hPhe(4-CF3)]L[NMeS](CH2CONHtBu)[NMeL]D-Pyrrolidide; lactam N-11) | 70 nM |
| CC[C@H](C)[C@@H]1NC(=O)[C@H](CC(C)C)N(C)C(=O)C[C@@H](C)N(C)C(=O)[C@H]([C@@H](C)CC)N(C)C(=O)C2(CCC2)NC(=O)[C@@H]2CC(F)(F)CN2C(=O)[C@H](CCc2ccc(C(F)(F)F)c(Cl)c2)NC(=O)CN(C)C(=O)[C@H](CC2CCCCC2)N(C)C(=O)CN(C)C(=O)CN(C)C1=O [Compound 891] (cyclo([Ac4c][NMeI][NMedβ3hAla][NMeL]I[Sar][Sar][NMeCha][Sar][hPhe(3-Cl-4-CF3)][Pro(4,4-F2)])) | 9.6 nM |
| CC(C)C[C@H]1C(=O)N[C@@H](COCC(F)(F)F)C(=O)N(C)CC(=O)N(C)CC(=O)N(C)[C@@H](CC2CCCCC2)C(=O)N(C)CC(=O)N[C@@H](CCc2ccc(C(F)(F)F)c(Cl)c2)C(=O)N2CCC[C@H]2C(=O)NC2(CCCC2)C(=O)N(C)[C@@H](C2CCCCC2)C(=O)N(C)[C@H](C(=O)N2CCCCC2)CC(=O)N1C [Compound 894] ([NMeL]S(Trifluoroethyl)[Sar][Sar][NMeCha][Sar][hPhe(3-Cl-4-CF3)]P[Ac5c][NMeChg][NMeD]-Piperidide; lactam N-11) | 11 nM |
| CCCC[C@@H]1NC(=O)[C@H](CCc2ccc(C(F)(F)F)c(Cl)c2)NC(=O)CN(C)C(=O)[C@H](Cc2ccc(Cl)cc2)N(CC)C(=O)CN(C)C(=O)CN(C)C(=O)[C@H]([C@@H](C)CC)NC(=O)[C@H](CC(C)C)N(C)C(=O)C[C@@H](C(=O)N2CCCCC2)N(C)C(=O)[C@H](CC(C)C)NC(=O)C(C)(C)N(C)C1=O [Compound 895] ([NMeL]I[Sar][Sar][NEtPhe(4-Cl)][Sar][hPhe(3-Cl-4-CF3)][Nle][NMeAib]L[NMeD]-Piperidide; lactam N-11) | 8.4 nM |
| CC[C@H](C)[C@@H]1NC(=O)[C@H](C)N(C)C(=O)C[C@@H](C)NC(=O)[C@H](CC(C)C)N(C)C(=O)[C@H](CC(C)C)N(C)C(=O)[C@@H]2CCCN2C(=O)[C@H](CCc2ccc(C(F)(F)F)cc2)NC(=O)CN(C)C(=O)[C@H](Cc2ccc(Cl)cc2)N(C)C(=O)CN(C)C(=O)CN(C)C1=O [Compound 902] (cyclo(I[Sar][Sar][NMePhe(4-Cl)][Sar][hPhe(4-CF3)]P[NMeL][NMeL][d(β3hA)][NMeA])) | 140 nM |
| CC[C@H](C)[C@@H]1NC(=O)[C@H](CC(C)C)N(C)C(=O)C[C@@H](C)N(C)C(=O)[C@H](CC(C)C)NC(=O)C(C)(C)N(C)C(=O)[C@H](CC(C)C)NC(=O)[C@H](CCc2ccc(C(F)(F)F)c(F)c2)NC(=O)CN(C)C(=O)[C@H](CC2CCCCC2)N(C)C(=O)CN(C)C(=O)[C@@H]2CCN2C1=O [Compound 905] (cyclo([Aze][Sar][NMeCha][Sar][hPhe(3-F,4-CF3)]L[NMeAib]L[NMedβ3hAla][NMeL]I)) | 180 nM |
| CC[C@H](C)[C@@H]1NC(=O)[C@H](C)N(C)C(=O)C[C@@H](C(=O)N2CCCC2)N(C)C(=O)[C@H](C(C)C)N(C)C(=O)C2(CCC2)NC(=O)[C@H](Cc2ccccc2Cl)N(C)C(=O)[C@H](CCc2ccc(C(F)(F)F)c(Cl)c2)NC(=O)CN(C)C(=O)[C@H](CC2CCCCC2)N(C)C(=O)CN(C)C(=O)CN(C)C1=O [Compound 906] ([NMeA]I[Sar][Sar][NMeCha][Sar][hPhe(3-Cl-4-CF3)][NMePhe(2-Cl)][Ac4c][NMeV][NMeD]-Pyrrolidide; lactam N-11) | 2.7 nM |
| CC[C@H](C)[C@@H]1NC(=O)[C@H](CC(C)C)N(C)C(=O)C[C@@H](C(=O)N(C)C)N(C)C(=O)[C@H](C2CCCC2)N(C)C(=O)C2(CCCC2)NC(=O)[C@H](Cc2ccc(C)cc2)N(C)C(=O)[C@H](CCc2ccc(C(F)(F)F)c(Cl)c2)NC(=O)CN(C)C(=O)[C@H](CC2CCCCC2)N(C)C(=O)[C@@H]2CCN2C(=O)[C@H](C)N(C)C1=O [Compound 908] ([NMeL]I[NMeA][Aze][NMeCha][Sar][hPhe(3-Cl-4-CF3)][NMePhe(4-Me)][Ac5c][NMeGly(cPent)][NMeD]-NMe2; lactam N-11) | 39 nM |
| CC[C@H](C)[C@@H]1NC(=O)[C@H](C)N(C)C(=O)C[C@@H](C)NC(=O)[C@H](C(C)C)N(C)C(=O)[C@H](Cc2ccccc2)N(C)C(=O)[C@H](CC(C)C)N(C)C(=O)[C@H](CCc2ccc(C(F)(F)F)cc2)NC(=O)CN(C)C(=O)[C@H](Cc2ccc(Cl)cc2)N(C)C(=O)[C@@H]2CCN2C(=O)CN(C)C1=O [Compound 913] (cyclo([Aze][NMePhe(4-Cl)][Sar][hPhe(4-CF3)][NMeL][NMeF][NMeV][d(β3hA)][NMeA]I[Sar])) | 53 nM |
| CC[C@H](C)[C@@H]1NC(=O)[C@H](CC(C)C)N(C)C(=O)C[C@@H](C(=O)N(C)C)N(C)C(=O)[C@H]([C@@H](C)CC)N(C)C(=O)[C@H](C(C)C)NC(=O)[C@@H](C)NC(=O)[C@H](CCc2ccc(C(F)(F)F)c(Cl)c2)NC(=O)CN(C)C(=O)[C@H](Cc2ccc(C)cc2)N(C)C(=O)[C@@H]2CCN2C(=O)[C@H](C)N(C)C1=O [Compound 915] ([NMeL]I[NMeA][Aze][NMePhe(4-Me)][Sar][hPhe(3-Cl-4-CF3)][dA]V[NMeI][NMeD]-NMe2; lactam N-11) | 40 nM |
| CC[C@H](C)[C@@H]1NC(=O)[C@H](CC(C)C)N(C)C(=O)C[C@@H](C(=O)N2CCCCC2)N(C)C(=O)[C@H](C2CCCCC2)N(C)C(=O)[C@@H](C)NC(=O)[C@@H]2CCCN2C(=O)[C@H](CCc2ccc(C(F)(F)F)c(Cl)c2)NC(=O)CN(C)C(=O)[C@H](CC2CCCCC2)N(C)C(=O)CN(C)C(=O)CN(C)C1=O [Compound 917] ([NMeL]I[Sar][Sar][NMeCha][Sar][hPhe(3-Cl-4-CF3)]P[dA][NMeChg][NMeD]-Piperidide; lactam N-11) | 2 nM |
| CC[C@H](C)[C@@H]1NC(=O)[C@H](C)N(C)C(=O)C[C@@H](C)NC(=O)[C@H](C2CCCC2)N(C)C(=O)C2(CCCC2)NC(=O)[C@@H]2CCCN2C(=O)[C@H](CCc2ccc(C(F)(F)F)c(Cl)c2)NC(=O)[C@@H](C)N(C)C(=O)[C@H](Cc2cccnc2)N(C)C(=O)CN(C)C(=O)CN(C)C1=O [Compound 919] (cyclo([Ac5c][NMeGly(cPent)][d(β3hA)][NMeA]I[Sar][Sar][NMe3Pal][dNMeA][hPhe(3-Cl-4-CF3)]P)) | 52 nM |
| CC[C@H](C)[C@@H]1NC(=O)[C@H](CC(C)C)N(C)C(=O)C[C@@H](C)NC(=O)[C@H](CC(C)C)N(C)C(=O)C(C)(C)NC(=O)[C@@H]2C[C@@H]3CCCC[C@@H]3N2C(=O)[C@H](CCc2ccc(C(F)(F)F)cc2)NC(=O)CN(C)C(=O)[C@H](Cc2ccc(Cl)cc2)N(C)C(=O)CN(C)C(=O)CN(C)C1=O [Compound 922] (cyclo([Aib][NMeL][d(β3hA)][NMeL]I[Sar][Sar][NMePhe(4-Cl)][Sar][hPhe(4-CF3)][Oic])) | 230 nM |

Reference: US12371454B2, “Cyclic peptide compound having Kras inhibitory action” (priority 2019, dated 2025)
